Experimental findings from patent US11229810B2, “Methods and systems for producing neuronal lesions using magnetic resonance and acoustic energy” (University of Virginia Patent Foundation, priority 2017, dated 2022) are described below.

Each structure is given as a SMILES string.

The assay deals with lateral aspect of the hippocampus. In words: MRgFUS + microbubbles + QA lesion study in rats, followed by T2-TSE MR imaging. In kind it is in vivo, Male Sprague Dawley rats. Particulars: rat, QA 0.06 mmol (1 ml of 10 mg/ml) intraperitoneally once per day for 4 days beginning 2 days prior to insonification, saline-treated animals normal. The procedure:
An illustrative example is described below, concerning a study of techniques herein as applied to a particular subject. Male Sprague Dawley rats (e.g., 5-6 weeks of age (120-150 g)), were divided into two groups receiving the following treatments: 1) MRgFUS+microbubbles+saline (n=5), or 2) MRgFUS+microbubbles+QA (n=5). QA was dissolved in 0.1M PBS (10 mg/ml). Either 1 ml of the QA solution (0.06 mmol) or 1 ml of saline was injected intraperitoneally once per day for 4 days beginning 2 days prior to insonification. Phospholipid encapsulated microbubbles (mean size: ˜5 um; concentration: 6×10^8 microbubbles/ml; volume injected: 300 μl/kg) and Gadodiamide contrast (Omniscan, 0.2 ml/kg) were delivered via the tail vein just prior to sonification.
An acoustic energy delivery system was configured in a manner similar to that discussed above as in system 100 and in this illustrative example, the system included an MR-compatible, pre-focused, 8-element annular array comprising 1.5 MHz transducers 111 (e.g., having spherical radius=20 mm±2 mm, active diameter=25 mm [focal ratio=0.8]; an ultrasonic transducer with 80% electric-acoustic efficiency, which was connected to a phased array generator and RF power amplifier. An MR-compatible motorized positioning stage was used to move the transducer in the rostral-caudal and medial-lateral directions. […]

In the case of `O=C(O)c1cccnc1C(=O)O` [QA, quinolinic acid], the “T2-TSE imaging appearance of brain, 24 hours post-insonification” value (24 hours post-insonification) is on record as “exhibited hyperintensity in the area of insonification”. Besides, the “T2-TSE imaging appearance of brain, 7 days post-insonification” value (7 days post-insonification, no evidence of a lesion) is listed as “exhibited signs of damage in the region of insonification”.
